Test results from ChEMBL document CHEMBL1201862, “PubChem BioAssay data set” (2004).
Activity calls are given as the source filed them.

Legend:
[1] = system: Streptococcus sp. 'group A'; assay: growth inhibition of control SK(-) GAS strain, dose response, counter-screen for streptokinase expression inhibitor project, luminescence, kanamycin, BacTiterGlo, confirmation (AID 1900); type: functional, organism-based
[2] = cells; type: functional
[3] = biological target: T1, Streptokinase A (Streptococcus pyogenes serotype M1, UniProt P10520); assay: S. pyogenes streptokinase expression inhibitors, potency, dose response, plasminogen activation absorbance, OD405 (AID 1914); type: functional, Streptococcus pyogenes M1 GAS;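 also: secreted streptokinase activity via plasminogen activation per viability signal from cell pellet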
T1 sequence (P10520 whole entry): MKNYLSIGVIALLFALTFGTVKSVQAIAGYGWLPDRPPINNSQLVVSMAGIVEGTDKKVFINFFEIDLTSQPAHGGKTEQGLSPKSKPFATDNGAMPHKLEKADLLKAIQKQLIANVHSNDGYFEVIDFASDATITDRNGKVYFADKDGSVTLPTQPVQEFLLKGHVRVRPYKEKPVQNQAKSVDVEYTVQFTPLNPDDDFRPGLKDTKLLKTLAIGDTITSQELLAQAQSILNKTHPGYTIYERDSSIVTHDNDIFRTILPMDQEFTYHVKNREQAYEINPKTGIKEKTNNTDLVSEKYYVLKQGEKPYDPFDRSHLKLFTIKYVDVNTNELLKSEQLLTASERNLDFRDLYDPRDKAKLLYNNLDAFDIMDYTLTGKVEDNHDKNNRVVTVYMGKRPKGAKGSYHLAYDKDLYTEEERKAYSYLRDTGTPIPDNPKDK

[4] = system: Streptococcus; assay: Group A Streptococcus viability loss, dose response, counter-screen for streptokinase expression inhibitor project, luminescence, BacTiterGlo (AID 1915); type: functional, organism-based;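 also: potency for reduction of bacterial viability or growth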
[5] = biological target: T2, Rac GTPase-activating protein 1 (Homo sapiens, UniProt Q9H0H5); assay: MgcRacGAP GTPase-activating activity inhibitors, confirmation, biochemical, ADP Hunter fluorescence, primary and confirmatory (AID 624330); type: functional
T2 sequence (Q9H0H5 whole entry): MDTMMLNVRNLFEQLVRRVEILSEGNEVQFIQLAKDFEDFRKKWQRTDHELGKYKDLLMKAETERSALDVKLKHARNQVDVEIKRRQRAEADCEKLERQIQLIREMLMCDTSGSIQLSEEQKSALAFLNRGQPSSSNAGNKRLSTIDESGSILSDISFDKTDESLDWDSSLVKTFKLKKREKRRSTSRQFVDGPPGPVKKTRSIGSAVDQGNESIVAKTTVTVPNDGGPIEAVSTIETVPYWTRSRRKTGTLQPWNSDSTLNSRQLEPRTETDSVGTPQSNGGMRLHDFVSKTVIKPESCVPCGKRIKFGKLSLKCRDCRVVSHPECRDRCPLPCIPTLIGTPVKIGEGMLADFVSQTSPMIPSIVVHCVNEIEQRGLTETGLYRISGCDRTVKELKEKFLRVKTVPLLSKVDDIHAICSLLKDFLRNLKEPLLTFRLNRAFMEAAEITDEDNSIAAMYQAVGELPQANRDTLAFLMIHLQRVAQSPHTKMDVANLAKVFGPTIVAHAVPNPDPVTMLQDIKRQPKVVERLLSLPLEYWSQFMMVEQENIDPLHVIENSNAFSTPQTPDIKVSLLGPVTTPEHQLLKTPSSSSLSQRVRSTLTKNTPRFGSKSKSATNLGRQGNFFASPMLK

[6] = P. falciparum Dd2 growth inhibitors, dose response, SYBR Green, cherry-picked samples (AID 1159567); type: functional, cell-based
[7] = biological target: Cytochrome P450 2D6 (Homo sapiens, UniProt P10635);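 also: CYP2D6 member of a cytochrome P450 panel assay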
Cytochrome P450 2D6, sequence (P10635 whole entry): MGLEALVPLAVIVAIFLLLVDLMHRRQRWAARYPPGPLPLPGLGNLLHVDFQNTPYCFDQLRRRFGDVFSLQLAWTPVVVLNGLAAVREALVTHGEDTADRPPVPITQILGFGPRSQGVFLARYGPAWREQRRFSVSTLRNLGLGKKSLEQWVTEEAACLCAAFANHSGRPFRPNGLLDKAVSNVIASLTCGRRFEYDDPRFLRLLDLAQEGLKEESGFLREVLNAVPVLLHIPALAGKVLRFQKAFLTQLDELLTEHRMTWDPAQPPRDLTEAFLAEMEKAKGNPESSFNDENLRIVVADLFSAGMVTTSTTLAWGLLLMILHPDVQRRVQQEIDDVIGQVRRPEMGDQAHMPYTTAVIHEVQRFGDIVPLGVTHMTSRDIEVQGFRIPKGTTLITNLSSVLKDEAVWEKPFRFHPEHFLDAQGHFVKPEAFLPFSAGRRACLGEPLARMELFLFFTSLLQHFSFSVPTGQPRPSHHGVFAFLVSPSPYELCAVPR

[8] = biological target: T3, Zinc finger protein mex-5 (Caenorhabditis elegans, UniProt Q9XUB2); assay: MEX-5/TCR-2 RNA interaction inhibitors, dose response, biochemical, C. elegans, fluorescence polarization (AID 1960)
T3 sequence (Q9XUB2 whole entry): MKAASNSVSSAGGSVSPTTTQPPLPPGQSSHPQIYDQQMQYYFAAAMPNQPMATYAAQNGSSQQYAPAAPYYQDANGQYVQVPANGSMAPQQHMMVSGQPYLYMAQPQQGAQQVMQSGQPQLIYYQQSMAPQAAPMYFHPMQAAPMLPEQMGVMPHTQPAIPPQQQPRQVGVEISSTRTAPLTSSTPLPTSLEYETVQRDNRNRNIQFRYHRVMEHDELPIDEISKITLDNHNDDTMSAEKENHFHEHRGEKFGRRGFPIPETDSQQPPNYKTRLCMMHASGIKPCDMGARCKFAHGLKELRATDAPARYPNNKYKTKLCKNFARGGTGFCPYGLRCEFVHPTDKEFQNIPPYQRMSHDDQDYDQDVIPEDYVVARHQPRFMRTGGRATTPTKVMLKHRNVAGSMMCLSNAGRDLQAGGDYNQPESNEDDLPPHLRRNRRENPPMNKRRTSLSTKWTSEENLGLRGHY

[9] = biological target: T4, RNA-binding protein pos-1 (Caenorhabditis elegans, UniProt G5EF15); assay: inhibitors of POS-1/mex-3 RNA binding, dose response, biochemical, fluorescence polarization (AID 1964);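 also: purified POS-1 fused to maltose binding protein made in E. coli; potency of compounds blocking POS-1 binding to fluorescent RNA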
T4 sequence (G5EF15 whole entry): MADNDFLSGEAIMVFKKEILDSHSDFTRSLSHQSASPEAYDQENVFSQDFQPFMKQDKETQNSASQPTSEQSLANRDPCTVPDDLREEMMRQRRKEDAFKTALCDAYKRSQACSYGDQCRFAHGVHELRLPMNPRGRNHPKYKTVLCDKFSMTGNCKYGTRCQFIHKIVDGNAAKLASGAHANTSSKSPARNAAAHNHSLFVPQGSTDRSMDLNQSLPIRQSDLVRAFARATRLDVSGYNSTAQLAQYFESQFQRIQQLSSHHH

[10] = C. albicans growth with fluconazole, confirmation, fluorescence, retest (AID 2467); type: functional, cell-based
[11] = NIH-3T3 fibroblast cytotoxicity, dose response, cytotoxicity control, cell-based, fluorescence, Alamar Blue, secondary assay (AID 2327); type: functional;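 also: NIH-3T3 mouse fibroblasts cultured with fluconazole at 8 µg/mL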
[12] = biological target: T5, Cytochrome P450 1A2 (Homo sapiens, UniProt P05177);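 also: PubChem cytochrome P450 panel assay, CYP1A2 panel member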
T5 sequence (P05177 whole entry): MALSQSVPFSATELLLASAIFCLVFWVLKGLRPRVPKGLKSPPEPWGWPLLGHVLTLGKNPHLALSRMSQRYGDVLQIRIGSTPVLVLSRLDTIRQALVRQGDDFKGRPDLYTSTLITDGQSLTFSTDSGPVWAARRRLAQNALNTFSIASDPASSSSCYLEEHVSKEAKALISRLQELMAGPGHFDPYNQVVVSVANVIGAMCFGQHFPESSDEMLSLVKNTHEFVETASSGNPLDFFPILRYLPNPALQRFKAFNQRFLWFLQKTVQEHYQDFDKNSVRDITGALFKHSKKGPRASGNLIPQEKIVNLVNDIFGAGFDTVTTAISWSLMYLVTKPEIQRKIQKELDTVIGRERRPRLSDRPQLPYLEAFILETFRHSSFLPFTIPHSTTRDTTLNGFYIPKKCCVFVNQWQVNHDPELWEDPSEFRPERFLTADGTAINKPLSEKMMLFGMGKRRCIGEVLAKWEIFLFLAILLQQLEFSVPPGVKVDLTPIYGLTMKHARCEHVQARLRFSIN

[13] = biological target: Cytochrome P450 2C19 (Homo sapiens, UniProt P33261); assay: Cytochrome panel assay with activity outcomes. Panel member name: p450-cyp2c19 Compounds with AC50 equal or less than 10 uM are considered active; type: functional; conditions: read-out: AC50
Cytochrome P450 2C19, sequence (P33261 whole entry): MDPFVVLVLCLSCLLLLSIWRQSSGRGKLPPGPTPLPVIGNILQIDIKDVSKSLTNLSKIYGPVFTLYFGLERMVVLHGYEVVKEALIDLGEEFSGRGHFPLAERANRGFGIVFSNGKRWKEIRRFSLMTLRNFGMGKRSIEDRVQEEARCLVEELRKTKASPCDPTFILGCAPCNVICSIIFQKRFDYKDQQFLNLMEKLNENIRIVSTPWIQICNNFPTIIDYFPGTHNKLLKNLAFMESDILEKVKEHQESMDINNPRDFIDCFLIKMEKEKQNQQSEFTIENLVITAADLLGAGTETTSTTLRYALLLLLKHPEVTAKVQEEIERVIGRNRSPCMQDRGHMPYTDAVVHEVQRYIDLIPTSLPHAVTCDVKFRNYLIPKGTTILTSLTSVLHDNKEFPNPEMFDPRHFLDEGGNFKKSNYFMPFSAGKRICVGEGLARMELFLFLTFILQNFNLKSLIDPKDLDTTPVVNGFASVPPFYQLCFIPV

[14] = biological target: Cytochrome P450 3A4 (Homo sapiens, UniProt P08684);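 also: CYP3A4 tested as one member of a cytochrome P450 panel screen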
Cytochrome P450 3A4, sequence (P08684 whole entry): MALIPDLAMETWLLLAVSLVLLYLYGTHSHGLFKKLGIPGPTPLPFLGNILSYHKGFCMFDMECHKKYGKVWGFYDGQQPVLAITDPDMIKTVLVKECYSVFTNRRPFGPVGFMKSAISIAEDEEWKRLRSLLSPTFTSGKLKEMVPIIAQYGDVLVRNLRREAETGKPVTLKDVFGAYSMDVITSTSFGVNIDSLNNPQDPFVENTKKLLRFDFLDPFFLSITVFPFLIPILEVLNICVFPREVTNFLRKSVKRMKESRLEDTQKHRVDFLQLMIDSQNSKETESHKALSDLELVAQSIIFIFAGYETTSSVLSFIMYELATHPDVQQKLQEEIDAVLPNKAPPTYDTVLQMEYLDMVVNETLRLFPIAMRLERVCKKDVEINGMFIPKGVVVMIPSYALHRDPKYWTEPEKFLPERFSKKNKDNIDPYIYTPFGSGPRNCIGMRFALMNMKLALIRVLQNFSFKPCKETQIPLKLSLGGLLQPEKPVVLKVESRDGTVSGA

[15] = cytotoxicity toward NIH3T3 fibroblasts, dose response, counter-screen, cell-based, ATP luminescence, mouse fibroblasts (AID 2010); type: functional;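 also: cells exposed to compound for about 90 hours before reading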
[16] = inhibitors of intracellular T. cruzi replication, confirmation, NIH3T3 host cells, beta-gal luminescence (AID 2044); type: functional, cell-based;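 also: intracellular parasites grown in NIH/3T3 mouse fibroblasts as host cells; luminescent beta-galactosidase reporter signal from transgenic T. cruzi replicating inside host cells; inhibitors lower the luminescence signal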

Compound: C=C(C)C1Cc2c(C)nn(-c3nc(C)cc(C)n3)c2C1 (stereo not drawn)
- EC50 [1]: 25 µM (active)
- IC50 [2]: 3.19 µM (active)
- EC50 [3]: > 150 µM (not active)
- EC50 [4]: > 150 µM (not active)

Compound: CN1CCc2c1nc1ccccc1c2NC(=O)CN1CCCC1
- IC50 [5]: 117 µM (active)

Compound: Cc1nc(Cl)cc(N/N=C/c2ccc(O)cc2O)n1
- IC50 [5]: 16.6 µM (active)

Compound: CCN(CC)c1ccc(NC(=O)c2ccc(S(=O)(=O)N3CCOCC3)cc2)cc1
- IC50 [5]: 71.9 µM (active)

Compound: O=C(C[C@@H]1C[C@H]2c3cc(NC(=O)Nc4ccccc4)ccc3O[C@H]2[C@H](CO)O1)NCc1ccccc1
- AC50 [6]: 15.9 µM (active)

Compound: COc1ccccc1-c1ccc2ncnc(NCCN3CCOCC3)c2c1
- AC50 [7]: 39.8 µM (inconclusive)

Compound: COc1ccc2c3c(n(C)c2c1)[C@H](CO)N(C(=O)c1ccccc1)CC31CCN(C(=O)c2ccccc2)CC1
- AC50 [6]: 7.29 µM (active)

Compound: Cc1cccc(C(=O)NCCCNC(=O)c2cccc(C)c2)c1
- EC50 [8]: > 300 µM (not active)
- EC50 [9]: > 300 µM (not active)

Compound: CS(=O)(=O)Nc1cccc(-c2ccc3ncnc(Nc4ccccc4)c3c2)c1
- AC50 [7]: 25.1 µM (inconclusive)

Compound: CC(=O)Nc1cccc2cc(O)ccc12
- IC50 [5]: 36.8 µM (active)

Compound: CCCc1cn([C@H]2C[C@@H]3O[C@H](CO)CC[C@@H]3O[C@@H]2CCc2ccc(-c3ccc(OC)cc3)cc2)nn1
- AC50 [6]: 4.34 µM (active)

Compound: O=C1C2CCCN2C(c2ccccc2)N1c1ccccn1 (stereo not drawn)
- EC50 [10]: > 38 µM (not active)
- EC50 [11]: > 160 µM (inactive)

Compound: CC1COc2ccccc2N1S(=O)(=O)c1ccccc1 (stereo not drawn)
- EC50 [11]: > 150 µM (inconclusive)

Compound: CS(=O)(=O)N1CCC2(CCCN(C(=O)Nc3ccccc3)C2)CC1
- AC50 [12]: 15.8 µM (inconclusive)

Compound: COc1ccc(S(=O)(=O)N2CC[C@@H]3[C@H]2c2cc(-c4ccc(C#N)cc4)ccc2N[C@@H]3CO)cc1
- AC50 [6]: 9.46 µM (active)

Compound: O=C1CCC/C1=c1\s/c(=C\c2cccnc2)c(=O)n1-c1ccccc1
- EC50 [8]: 42 µM (active)
- EC50 [9]: > 300 µM (not active)

Compound: COC(=O)c1cc2n(n1)CCN(Cc1ccccc1F)C2=O
- AC50 [13]: 5.01 µM (inconclusive)
- AC50 [12]: 15.8 µM (inconclusive)

Compound: O=c1c(-c2cccs2)nc2cnc(Nc3ccccc3)nc2n1C[C@H]1CCCO1
- AC50 [12]: 2.51 µM (inconclusive)
- AC50 [14]: 10 µM (inconclusive)

Compound: Clc1ccccc1-c1nc(/C=N/N2CCOCC2)c2ccccn12
- IC50 [5]: 33.6 µM (active)

Compound: Cn1ccnc1SCC(=O)Nc1sccc1C#N
- AC50 [13]: 7.08 µM (inconclusive)
- AC50 [7]: 25.1 µM (inconclusive)

Compound: Cc1noc(C)c1S(=O)(=O)NC1CCN(Cc2ccccc2)CC1
- EC50 [8]: 35.3 µM (active)
- EC50 [9]: 49.2 µM (active)

Compound: COc1ccc(NCC(O)Cn2c(C)c(C)c3ccccc32)cc1 (stereo not drawn)
- IC50 [5]: 70.7 µM (active)

Compound: N#C/C(=C/c1ccc(N2CCCC2)c([N+](=O)[O-])c1)c1nc2ccccc2[nH]1
- AC50 [12]: 3.55 µM (inconclusive)

Compound: N#CC1=C(N)OC2=C(C(=O)CCC2)[C@]12C(=O)N(CC(N)=O)c1ccccc12
- EC50 [8]: > 300 µM (not active)
- EC50 [9]: > 300 µM (not active)

Compound: CCCCNCC#CCOc1cc(C)ccc1C(C)C
- IC50 [5]: 196 µM (active)

Compound: Cc1sc(NC(=O)c2ccc(Br)s2)c(C(N)=O)c1C
- EC50 [10]: > 38 µM (not active)
- EC50 [11]: > 150 µM (inactive)

Compound: Cc1cccc(NC(=O)N(Cc2nc(O)c3ccccc3n2)C2CCCC2)c1
- AC50 [7]: 39.8 µM (inconclusive)

Compound: Cc1ccc(S(=O)(=O)C(C#N)c2nc3ccccc3nc2N2CCN(C)CC2)cc1C (stereo not drawn)
- EC50 [10]: > 38 µM (not active)
- EC50 [11]: > 150 µM (inactive)

Compound: Clc1cccc(N/N=C/c2ccc(N3CCOCC3)cc2)c1
- EC50 [15]: > 60 µM (not active)
- EC50 [16]: 2.74 µM (active)
- AC50 [7]: 7.08 µM (inconclusive)

Compound: COc1cccc(/C=N/NC(=O)c2cc(-c3cccn3C)[nH]n2)c1O
- EC50 [10]: 2.95 µM (active)
- EC50 [11]: 23.5 µM (inconclusive)

Compound: Cc1cccc(S(=O)(=O)N2CCCCN3[C@H](C2)[C@@H](c2ccc(-c4cccnc4)cc2)[C@@H]3CO)c1
- AC50 [6]: 4.88 µM (active)

Compound: COCCOC(=O)c1c(C)oc2ccc(OC(=O)c3ccco3)cc12
- IC50 [2]: > 50 µM (active)

Compound: O=C(Nc1nnc(-c2ccc(Cl)cc2)o1)C1=COCCO1
- IC50 [2]: 4.83 µM (active)

Compound: COc1cc2c(cc1C1C(C#N)=C(N)OC3=C1C(=O)CC(C)(C)C3)OCO2 (stereo not drawn)
- EC50 [8]: > 300 µM (not active)
- EC50 [9]: > 300 µM (not active)

Compound: CC(C)CN(Cc1c(O)ccc2ccccc12)CC(C)C
- IC50 [5]: 47.5 µM (active)

Compound: COc1ccc(NCc2cc(O)nc3ccccc23)cc1
- IC50 [5]: 50.5 µM (active)

Compound: Oc1c(C(Nc2cccc(C(F)(F)F)c2)c2cccnc2)ccc2cccnc12 (stereo not drawn)
- EC50 [10]: > 38 µM (not active)
- EC50 [1]: 1.71 µM (active)
- EC50 [11]: > 150 µM (inactive)
- EC50 [3]: > 150 µM (not active)
- EC50 [4]: 15.6 µM (active)

Compound: CN1CC[C@@]2(CCCN(C(=O)c3csnn3)C2)C1
- AC50 [7]: 39.8 µM (inconclusive)

Compound: O=C(CNS(=O)(=O)c1ccc(Br)s1)N1CCC2(CC1)OCCO2
- AC50 [12]: 15.8 µM (inconclusive)
- AC50 [14]: 25.1 µM (inconclusive)

Compound: CCCCn1c(=O)[nH]c(=O)c2c1nc(-c1ccc(-c3ccccc3Br)o1)n2CCOC
- EC50 [8]: > 300 µM (not active)
- EC50 [9]: > 300 µM (not active)
